Legend:
red blood cells = test: Red Blood Cell (RBC) Lysis Assay (lysis20); type: cell-based, sheep; settings: concentration inducing 20% RBC lysis; sheep blood, 1 hour, 37 °C
Description: RBC lysis assays were performed on mechanically defibrinated sheep blood (Hemostat Labs: DSB030). An aliquot of 1.5 mL blood was placed into a microcentrifuge tube and centrifuged at 3,800 rpm for ten minutes. The supernatant was removed, and the cells were resuspended with 1 mL of phosphate-buffered saline (PBS). The suspension was centrifuged as described above, the supernatant was removed, and cells were resuspended 4 additional times in 1 mL PBS. The final cell suspension was diluted twentyfold with PBS. Compounds were serially diluted with PBS two-fold from stock solutions (1.0 mM) to yield 100 μL of twelve test concentrations on a flat-bottom 96-well plate (Corning, 351172), wherein the starting concentration of DMSO was 2.5%. To each of the wells, 100 μL of the twentyfold suspension dilution was then inoculated. TritonX (1% by volume) served as a positive control (100% lysis marker) and sterile PBS served as a negative control (0% lysis marker). Samples were then placed in an incubator at 37 °C and shaken at 200 rpm. After 1 hour, the samples were centrifuged at 3,800 rpm for ten minutes. The absorbance of the supernatant was measured with a UV spectrometer at a 540 nm wavelength. The concentration inducing 20% RBC lysis was then calculated for each compound based upon the absorbances of the TritonX and PBS controls. Aqueous DMSO controls were conducted as appropriate for each compound.
The potential cytotoxicity of the compounds was also considered with the evaluation of hemolysis (lysis20) assays with 20% lysis of red blood cells serving as an indicator of potentially toxic compounds. Finally, the bioactivity of these compounds were benchmarked against a commercial benzalkonium chloride source (BAC; 70% benzyldimethyldodecylammonium chloride, and 30% benzyldimethyltetradecylammonium chloride) as well as some previously reported disinfectant compounds from the inventors' groups; included were bisQPC ^PhP6P-10,10 as well as ^PhP2P-10,10 and 12(2)12. A detailed description of the experimental procedures used to evaluate bioactivity and hemolysis assays are described above.

HA-MRSA (ATCC 33591) = test: MIC against hospital-acquired methicillin-resistant S. aureus (HA-MRSA); type: cell-based; settings: Staphylococcus aureus, 72 h
Description: The term “minimum inhibitory concentration (MIC)” means the lowest concentration of an antimicrobial agent that will inhibit the visible growth of a microorganism after overnight incubation. MIC values against bacteria, for example, the Gram-positive Staphylococcus aureus and Enterococcus faecalis and the Gram-negative Escherichia coli and Pseudomonas aeruginosa were determined by standard methods. See also P. A. Wayne, Methods for Dilution Antimicrobial Tests for Bacteria that Grow Aerobically; Approved Standard, Ninth Edition, 2012, CLSI Document M07-A9, Vol. 32 No. 2.
Biological testing procedures were adapted from prior work by Melander and coworkers. For all biological assays, laboratory strains of methicillin-susceptible Staphylococcus aureus MSSA (SH1000), Staphylococcus aureus CA-MRSA (USA300-0114), Staphylococcus aureus HA-MRSA (ATCC 33591), Escherichia coli (MC4100), Enterococcus faecalis (OG1RF), Acinetobacter baumannii (ATCC 17978), were grown with shaking at 37 °C overnight from freezer stocks in 5 mL of the indicated media: SH1000, OG1RF, MC4100, USA300-0114, and ATCC 17978 were grown in BDTM Mueller-Hinton broth (MHB), whereas ATCC 33591 was grown in BDTM tryptic soy broth (TSB). The inoculum were then streaked onto Mueller-Hinton agar (MHA) plates and grown overnight at 37 °C. From the plates, single colonies were selected, diluted into 50 mL of fresh media and grown overnight at 37 °C with shaking for use in the MIC assays. Optical density (OD) measurements were obtained using a SpectraMax iD3 plate reader (Molecular Devices, United States).
Compounds were serially diluted two-fold from stock solutions (1.0 mM) to yield twelve 100 μL test concentrations, wherein the starting concentration of dimethyl sulfoxide (DMSO) was 2.5%. Overnight S. aureus, E. faecalis, E. coli, A. baumannii, USA300-0114 (CA-MRSA), and ATCC 33591 (HA-MRSA) cultures were diluted to ca. 10^6 CFU/mL in MHB or TSB and regrown to mid-exponential phase, as determined by optical density recorded at 600 nm (OD600). All cultures were then diluted again to ca. 10^6 CFU/mL and 100 μL were inoculated into each well of a U-bottom 96-well plate (Corning, 351177) containing 100 μL of compound solution. Plates were incubated statically at 37 °C for 72 hours upon which wells were evaluated visually for bacterial growth. The MIC was determined as the lowest concentration of compound resulting in no bacterial growth visible to the naked eye, based on the highest value in three independent experiments. Aqueous DMSO controls were conducted as appropriate for each compound.
The prepared library of biscationic amphiphilic compounds was assessed for performance as antibacterial disinfectants by determining the minimum inhibitory concentration (MIC) for each against a panel of bacteria. The bacteria selected for the study were chosen to evaluate the broad spectrum antimicrobial performance of the QPCs, and therefore, included both Gram-positive and Gram-negative bacterial strains, including those with known antimicrobial resistance mechanisms. These bacteria include the Gram-positive strains of methicillin-susceptible Staphylococcus aureus [MSSA; SH1000], community-acquired methicillin-resistant Staphylococcus aureus [CA-MRSA; USA 300-0114], hospital-acquired methicillin-resistant Staphylococcus aureus [HA-MRSA; ATCC 33591] and the […], Escherichia coli [MC4100], Acinetobacter baumannii [ATCC 17498] and Pseudomonas aeruginosa [PAO1].

HA-MRSA = test: MBEC, biofilm eradication, HA-MRSA; type: cell-based, Staphylococcus aureus; settings: 24 hours, 37 °C, TSB
Description: A regrowth assay was used to establish the MBEC of a compound to evaluate the antibiofilm activity.
Biofilm eradication experiments were performed using a pegged-lid microtiter plate assay to determine the MBEC values for compounds of interest, as previously described. […] Sci. Rep. 2017, 7, 2003; and Raval, Y. S., Flurin, L., Mohamed, A., Greenwood-Quaintance, K. E., Beyenal, H., & Patel, R. In Vitro Activity of Hydrogen Peroxide and Hypochlorous Acid Generated by Electrochemical Scaffolds Against Planktonic and Biofilm Bacteria. Antimicrob Agents Chemother. 2021, 65, e01966-20. Briefly, […] of mid-log phase culture diluted to ca. 10^6 CFU/mL in tryptic soy broth (TSB) was added to wells of plat-bottom 96-well plates (Thermo Scientific, 266120) and covered with 96-pegged lid (Thermo Scientific, 445497). Plates were incubated to establish bacterial biofilms after incubation at 37 °C for 24 hours. The pegged lid was then removed, washed with PBS, and transferred to another 96-well plate containing 2-fold serial dilutions of the test compounds (the “challenge plate”). The total volume in each well was […], comprising of […] of compound diluted in water/DMSO, with a starting DMSO concentration of 2.5%, and […] of TSB. Plates were incubated statically at 37 °C for 24 hours. Next, the pegged lids were transferred to a fresh 96-well plate containing […] of TSB and incubated overnight at 37 °C. MBEC values were determined as the lowest test concentration that resulted eradicated biofilm (i.e., wells displaying no turbidity in the final plate).

**Q.** Which results are given for CCCCCCCCCCCC[N+](C)(C)CC[N+](C)(C)CCCCCCCCCCCC [12(2)12, reference compound]?
**A.** Lysis20 (red blood cells): 16 µM; MIC (HA-MRSA (ATCC 33591)): 1 µM; MBEC (HA-MRSA): 4 µM

**Q.** Which results are given for CCCCCCCCCCCC[P+](C)(C)CC[P+](C)(C)CCCCCCCCCCC [^MeP2P-12,12]?
**A.** Lysis20 (red blood cells): 8 µM; MIC (HA-MRSA (ATCC 33591)): 1 µM; MBEC (HA-MRSA): 8 µM

Source: patent publication US20260374792A1, “PHENYL-FREE BISCATIONIC QUATERNARY PHOSPHONIUM COMPOUNDS AS ANTIMICROBIAL AGENTS” (priority 2022, published 2026)
